Common to all, as to format: binding
Assay [1] concerns the target kinases (KINOMEscan panel) (Homo sapiens, UniProt P00533, DEL752-759). Particulars: EGFR(S752-I759del); NEW KINOMEscan.
For assay [2], the target named is kinases (KINOMEscan panel) (Homo sapiens, UniProt P42336, I800L). The note with it: kinase PIK3CA(I800L); NEW KINOMEscan.
The target of assay [3] is T1, kinases (KINOMEscan panel) (Homo sapiens, UniProt P33981).
T1 sequence (P33981 1-857): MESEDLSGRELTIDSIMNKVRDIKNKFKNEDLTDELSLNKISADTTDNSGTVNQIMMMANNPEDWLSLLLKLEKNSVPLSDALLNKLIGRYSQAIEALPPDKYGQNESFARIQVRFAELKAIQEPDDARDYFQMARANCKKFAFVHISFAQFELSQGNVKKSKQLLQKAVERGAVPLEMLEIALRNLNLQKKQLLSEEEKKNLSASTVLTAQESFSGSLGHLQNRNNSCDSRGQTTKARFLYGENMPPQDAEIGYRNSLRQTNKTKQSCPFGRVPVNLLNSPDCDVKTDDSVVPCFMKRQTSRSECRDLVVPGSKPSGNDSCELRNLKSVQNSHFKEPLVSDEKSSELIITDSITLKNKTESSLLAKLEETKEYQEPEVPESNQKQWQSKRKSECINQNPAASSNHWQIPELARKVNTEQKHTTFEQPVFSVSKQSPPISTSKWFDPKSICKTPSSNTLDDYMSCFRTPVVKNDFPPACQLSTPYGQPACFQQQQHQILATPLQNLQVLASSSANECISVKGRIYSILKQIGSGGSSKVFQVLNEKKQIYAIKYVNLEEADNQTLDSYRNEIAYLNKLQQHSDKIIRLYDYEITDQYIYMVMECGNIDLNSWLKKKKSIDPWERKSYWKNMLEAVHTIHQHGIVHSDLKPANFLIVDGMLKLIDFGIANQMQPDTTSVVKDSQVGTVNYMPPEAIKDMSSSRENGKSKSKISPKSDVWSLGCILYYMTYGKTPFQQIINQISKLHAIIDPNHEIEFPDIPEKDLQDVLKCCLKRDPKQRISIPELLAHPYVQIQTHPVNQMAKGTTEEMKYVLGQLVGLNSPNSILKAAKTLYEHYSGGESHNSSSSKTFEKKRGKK
Particulars: NEW KINOMEscan.

The target of assay [4] is kinases (KINOMEscan panel) (Homo sapiens, UniProt P00533, G719C). Particulars: kinase EGFR(G719C); NEW KINOMEscan.
Sequence of kinases (KINOMEscan panel) (Homo sapiens, UniProt P00533, G719C) (P00533 25-1210 G719C): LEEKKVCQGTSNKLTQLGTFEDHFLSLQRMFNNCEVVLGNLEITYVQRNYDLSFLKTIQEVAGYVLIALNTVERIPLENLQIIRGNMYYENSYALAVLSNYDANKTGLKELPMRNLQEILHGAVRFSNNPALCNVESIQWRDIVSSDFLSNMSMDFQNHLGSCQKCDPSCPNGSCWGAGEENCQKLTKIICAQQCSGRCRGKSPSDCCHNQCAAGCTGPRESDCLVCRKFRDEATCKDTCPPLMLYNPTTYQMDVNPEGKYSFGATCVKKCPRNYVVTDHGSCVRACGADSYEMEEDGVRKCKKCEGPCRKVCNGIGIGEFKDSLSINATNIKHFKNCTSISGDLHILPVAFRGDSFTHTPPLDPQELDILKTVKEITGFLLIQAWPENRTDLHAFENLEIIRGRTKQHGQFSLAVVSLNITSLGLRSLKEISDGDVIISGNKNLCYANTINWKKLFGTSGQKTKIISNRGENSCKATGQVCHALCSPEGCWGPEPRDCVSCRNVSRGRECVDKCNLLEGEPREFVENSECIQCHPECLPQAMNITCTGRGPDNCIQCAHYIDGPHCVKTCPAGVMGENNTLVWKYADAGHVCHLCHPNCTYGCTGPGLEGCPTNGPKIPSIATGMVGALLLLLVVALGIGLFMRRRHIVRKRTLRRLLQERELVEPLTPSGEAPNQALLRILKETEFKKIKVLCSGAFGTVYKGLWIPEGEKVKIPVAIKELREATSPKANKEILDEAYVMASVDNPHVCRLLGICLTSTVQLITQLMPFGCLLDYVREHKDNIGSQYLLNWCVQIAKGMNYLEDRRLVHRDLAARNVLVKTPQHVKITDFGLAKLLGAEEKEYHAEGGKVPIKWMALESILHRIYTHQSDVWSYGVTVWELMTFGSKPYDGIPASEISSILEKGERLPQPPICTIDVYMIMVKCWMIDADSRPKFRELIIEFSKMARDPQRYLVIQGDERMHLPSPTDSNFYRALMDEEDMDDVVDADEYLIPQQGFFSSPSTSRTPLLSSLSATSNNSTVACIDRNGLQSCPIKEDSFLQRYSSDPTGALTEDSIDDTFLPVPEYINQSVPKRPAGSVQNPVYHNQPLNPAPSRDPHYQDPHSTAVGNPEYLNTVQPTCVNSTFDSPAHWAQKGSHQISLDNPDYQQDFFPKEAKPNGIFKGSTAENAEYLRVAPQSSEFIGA
The target in assay [5] is kinases (KINOMEscan panel) (Homo sapiens, UniProt P00533, L858R). Particulars: kinase EGFR(L858R); NEW KINOMEscan.
The target in assay [6] is kinases (KINOMEscan panel) (Homo sapiens, UniProt P42336, E545A). Particulars: NEW KINOMEscan.
Sequence of kinases (KINOMEscan panel) (Homo sapiens, UniProt P42336, E545A) (P42336 whole entry E545A): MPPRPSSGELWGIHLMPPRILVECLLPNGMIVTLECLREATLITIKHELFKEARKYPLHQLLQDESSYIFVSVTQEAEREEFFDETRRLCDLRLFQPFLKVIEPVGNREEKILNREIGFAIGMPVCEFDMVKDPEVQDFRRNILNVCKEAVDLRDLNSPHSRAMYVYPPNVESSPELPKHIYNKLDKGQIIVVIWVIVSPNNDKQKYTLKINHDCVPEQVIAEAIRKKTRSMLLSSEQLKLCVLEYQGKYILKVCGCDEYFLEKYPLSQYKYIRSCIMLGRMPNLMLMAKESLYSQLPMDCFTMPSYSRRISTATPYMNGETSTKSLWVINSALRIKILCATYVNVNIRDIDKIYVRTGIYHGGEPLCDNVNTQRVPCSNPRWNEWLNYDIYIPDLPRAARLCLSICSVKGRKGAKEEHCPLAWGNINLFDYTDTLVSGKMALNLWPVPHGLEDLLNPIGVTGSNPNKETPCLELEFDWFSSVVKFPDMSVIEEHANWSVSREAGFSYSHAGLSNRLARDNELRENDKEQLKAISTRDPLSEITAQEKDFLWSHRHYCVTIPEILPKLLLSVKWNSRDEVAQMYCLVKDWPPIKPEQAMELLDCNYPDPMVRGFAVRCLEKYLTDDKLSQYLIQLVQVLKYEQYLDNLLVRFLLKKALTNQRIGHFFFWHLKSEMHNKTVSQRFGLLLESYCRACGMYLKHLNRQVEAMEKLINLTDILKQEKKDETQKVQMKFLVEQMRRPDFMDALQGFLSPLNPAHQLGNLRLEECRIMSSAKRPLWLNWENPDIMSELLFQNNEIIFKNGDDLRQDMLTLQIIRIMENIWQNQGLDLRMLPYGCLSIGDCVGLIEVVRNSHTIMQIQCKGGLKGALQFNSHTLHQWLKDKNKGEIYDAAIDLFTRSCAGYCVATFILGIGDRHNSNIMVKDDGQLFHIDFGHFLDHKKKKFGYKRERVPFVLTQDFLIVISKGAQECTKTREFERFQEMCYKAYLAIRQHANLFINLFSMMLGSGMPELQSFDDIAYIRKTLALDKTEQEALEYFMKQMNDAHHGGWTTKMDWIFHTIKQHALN
Assay [7] concerns the target T2, kinases (KINOMEscan panel) (Homo sapiens, UniProt P42681).
T2 sequence (P42681 1-527): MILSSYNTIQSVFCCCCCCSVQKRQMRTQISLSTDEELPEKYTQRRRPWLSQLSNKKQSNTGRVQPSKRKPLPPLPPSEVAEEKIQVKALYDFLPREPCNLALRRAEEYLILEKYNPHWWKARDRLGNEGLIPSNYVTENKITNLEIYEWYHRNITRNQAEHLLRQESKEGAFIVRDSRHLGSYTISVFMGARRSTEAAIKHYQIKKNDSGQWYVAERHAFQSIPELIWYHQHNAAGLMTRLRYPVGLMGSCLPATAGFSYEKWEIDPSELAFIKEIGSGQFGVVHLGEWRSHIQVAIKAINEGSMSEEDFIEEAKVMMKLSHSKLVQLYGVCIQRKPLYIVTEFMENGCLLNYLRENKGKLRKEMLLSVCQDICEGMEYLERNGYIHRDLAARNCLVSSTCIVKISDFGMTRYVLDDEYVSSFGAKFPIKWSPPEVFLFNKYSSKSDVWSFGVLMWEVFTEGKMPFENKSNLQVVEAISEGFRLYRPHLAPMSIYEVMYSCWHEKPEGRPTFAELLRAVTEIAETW
Particulars: kinase TXK; NEW KINOMEscan.

Assay [8] concerns the target kinases (KINOMEscan panel) (Homo sapiens, UniProt P49760). The note with it: kinase CLK2; NEW KINOMEscan.
In assay [9] the target is kinases (KINOMEscan panel) (Homo sapiens, UniProt P41240). The note with it: kinase CSK; NEW KINOMEscan.
Sequence of kinases (KINOMEscan panel) (Homo sapiens, UniProt P41240) (P41240 whole entry): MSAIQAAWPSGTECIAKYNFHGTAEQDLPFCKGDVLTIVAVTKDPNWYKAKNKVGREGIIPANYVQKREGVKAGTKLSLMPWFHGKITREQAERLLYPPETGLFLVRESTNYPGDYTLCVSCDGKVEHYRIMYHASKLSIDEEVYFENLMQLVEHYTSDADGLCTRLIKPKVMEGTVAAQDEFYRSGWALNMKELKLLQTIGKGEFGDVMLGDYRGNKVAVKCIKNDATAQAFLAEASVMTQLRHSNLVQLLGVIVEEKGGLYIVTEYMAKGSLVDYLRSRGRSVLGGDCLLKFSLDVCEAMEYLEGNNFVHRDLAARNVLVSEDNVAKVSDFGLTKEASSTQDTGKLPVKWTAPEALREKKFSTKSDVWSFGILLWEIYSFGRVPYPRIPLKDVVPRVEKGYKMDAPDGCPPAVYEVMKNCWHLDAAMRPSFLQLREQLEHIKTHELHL
The target of assay [10] is kinases (KINOMEscan panel) (Homo sapiens, UniProt P00519, T315I). Particulars: NEW KINOMEscan; for KINOMEscan ABL1(T315I)-nonphosphorylated: kinase ABL1(T315I)-nonphosphorylated; for KINOMEscan ABL1(T315I)-phosphorylated: kinase ABL1(T315I)-phosphorylated.
Assay [11] concerns the target kinases (KINOMEscan panel) (Homo sapiens, UniProt P32298). Particulars: kinase GRK4; NEW KINOMEscan.

Each structure is given as a SMILES string.

Sequence of kinases (KINOMEscan panel) (Homo sapiens, UniProt P00533, DEL752-759) (P00533 with tags, fused parts or gaps DEL752-759): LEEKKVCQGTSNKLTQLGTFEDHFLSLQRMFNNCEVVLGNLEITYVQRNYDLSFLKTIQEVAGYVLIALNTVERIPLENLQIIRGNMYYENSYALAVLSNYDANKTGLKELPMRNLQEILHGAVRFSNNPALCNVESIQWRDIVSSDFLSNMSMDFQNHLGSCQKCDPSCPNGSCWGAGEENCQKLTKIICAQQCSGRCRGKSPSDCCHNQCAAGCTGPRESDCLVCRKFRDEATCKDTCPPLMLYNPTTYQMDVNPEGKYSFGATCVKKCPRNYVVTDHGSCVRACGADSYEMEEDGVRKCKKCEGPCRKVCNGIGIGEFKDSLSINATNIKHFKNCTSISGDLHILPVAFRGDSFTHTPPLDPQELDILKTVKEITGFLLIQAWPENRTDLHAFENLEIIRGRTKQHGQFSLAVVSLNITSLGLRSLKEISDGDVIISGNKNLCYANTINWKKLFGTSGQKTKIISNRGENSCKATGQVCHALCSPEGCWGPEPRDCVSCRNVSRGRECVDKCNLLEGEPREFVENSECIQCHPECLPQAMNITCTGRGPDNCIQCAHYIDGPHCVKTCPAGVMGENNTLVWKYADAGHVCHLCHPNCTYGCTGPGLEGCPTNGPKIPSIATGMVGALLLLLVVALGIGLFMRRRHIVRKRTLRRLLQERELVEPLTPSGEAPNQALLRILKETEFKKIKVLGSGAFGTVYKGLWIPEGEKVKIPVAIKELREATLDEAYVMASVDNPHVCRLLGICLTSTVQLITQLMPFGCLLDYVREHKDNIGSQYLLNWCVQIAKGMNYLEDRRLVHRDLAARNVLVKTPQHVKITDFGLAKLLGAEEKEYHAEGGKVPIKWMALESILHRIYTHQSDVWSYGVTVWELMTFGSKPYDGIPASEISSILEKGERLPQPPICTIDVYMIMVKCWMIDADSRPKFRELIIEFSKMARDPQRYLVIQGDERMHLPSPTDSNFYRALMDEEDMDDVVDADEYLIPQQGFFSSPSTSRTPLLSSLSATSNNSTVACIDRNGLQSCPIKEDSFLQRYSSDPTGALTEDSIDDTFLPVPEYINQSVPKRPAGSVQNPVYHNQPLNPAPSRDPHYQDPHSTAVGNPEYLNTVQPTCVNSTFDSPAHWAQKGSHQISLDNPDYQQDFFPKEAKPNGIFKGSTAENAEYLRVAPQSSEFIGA
Sequence of kinases (KINOMEscan panel) (Homo sapiens, UniProt P32298) (P32298 whole entry): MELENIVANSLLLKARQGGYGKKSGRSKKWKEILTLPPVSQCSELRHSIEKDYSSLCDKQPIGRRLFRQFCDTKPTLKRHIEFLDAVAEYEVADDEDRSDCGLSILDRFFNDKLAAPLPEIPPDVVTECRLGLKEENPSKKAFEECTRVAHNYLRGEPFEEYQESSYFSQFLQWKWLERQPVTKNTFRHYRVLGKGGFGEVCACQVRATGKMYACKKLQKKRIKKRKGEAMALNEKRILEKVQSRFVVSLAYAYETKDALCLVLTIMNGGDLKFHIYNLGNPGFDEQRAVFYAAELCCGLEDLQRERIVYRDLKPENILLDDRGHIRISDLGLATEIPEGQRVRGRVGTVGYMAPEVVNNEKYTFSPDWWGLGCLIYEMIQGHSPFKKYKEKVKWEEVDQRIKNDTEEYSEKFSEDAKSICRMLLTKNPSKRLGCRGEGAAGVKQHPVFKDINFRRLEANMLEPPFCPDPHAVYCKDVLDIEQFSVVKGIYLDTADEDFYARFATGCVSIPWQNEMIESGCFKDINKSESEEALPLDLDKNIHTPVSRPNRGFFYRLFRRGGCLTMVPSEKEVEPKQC
Sequence of kinases (KINOMEscan panel) (Homo sapiens, UniProt P42336, I800L) (P42336 whole entry I800L): as the sequence (P42336 whole entry E545A) above, with A545E, I800L counted along it
Sequence of kinases (KINOMEscan panel) (Homo sapiens, UniProt P49760) (P49760 whole entry): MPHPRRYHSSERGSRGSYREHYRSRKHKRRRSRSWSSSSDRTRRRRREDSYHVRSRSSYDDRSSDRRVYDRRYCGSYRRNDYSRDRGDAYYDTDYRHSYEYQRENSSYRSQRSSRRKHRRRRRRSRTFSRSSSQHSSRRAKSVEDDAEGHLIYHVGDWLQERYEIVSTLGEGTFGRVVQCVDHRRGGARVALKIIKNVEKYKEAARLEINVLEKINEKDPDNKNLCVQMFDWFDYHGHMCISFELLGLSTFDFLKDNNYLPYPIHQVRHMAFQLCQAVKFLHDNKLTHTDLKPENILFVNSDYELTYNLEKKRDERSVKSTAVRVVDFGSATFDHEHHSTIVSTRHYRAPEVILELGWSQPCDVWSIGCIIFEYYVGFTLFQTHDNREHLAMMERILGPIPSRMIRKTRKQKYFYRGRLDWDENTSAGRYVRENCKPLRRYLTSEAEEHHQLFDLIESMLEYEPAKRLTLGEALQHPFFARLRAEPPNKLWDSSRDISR

Regarding `Cc1cccc(-c2nc(N(C)c3ccc4ncsc4c3)c3ccccc3n2)n1` [NK-161], in assay [1], the “KINOMEscan EGFR(S752-I759del)” value was found to be 0. For the same compound, the “KINOMEscan PIK3CA(I800L)” value in assay [2] amounted to 0. The “KINOMEscan TTK” value in assay [3] is listed as 26. Moreover, in [4], the “KINOMEscan EGFR(G719C)” value is recorded as 0. Also, the “KINOMEscan EGFR(L858R)” value in assay [5] turned out to be 2. The “KINOMEscan PIK3CA(E545A)” value in [6] turned out to be 14. Also, the “KINOMEscan TXK” value in assay [7] is 0. Also, the “KINOMEscan CLK2” value in assay [8] is 0. Further, the “KINOMEscan CSK” value in [9] is recorded as 0. In assay [10], the “KINOMEscan ABL1(T315I)-nonphosphorylated” value was 0 and the “KINOMEscan ABL1(T315I)-phosphorylated” value is 3. Further, in assay [11], the “KINOMEscan GRK4” value turned out to be 0.
Regarding `Cc1cccc(-c2nc(Nc3ccc4nn(C)cc4c3)c3ccccc3n2)n1` [NK167], the “KINOMEscan EGFR(S752-I759del)” value in [1] is 0. The “KINOMEscan PIK3CA(I800L)” value in assay [2] was 0. Besides, the “KINOMEscan TTK” value in [3] was found to be 17. For the same compound, in [4], the “KINOMEscan EGFR(G719C)” value stood at 0. In assay [5], the “KINOMEscan EGFR(L858R)” value was 0. Moreover, the “KINOMEscan PIK3CA(E545A)” value in assay [6] amounted to 31. The “KINOMEscan TXK” value in [7] is reported as 3. Also, the “KINOMEscan CLK2” value in assay [8] is reported as 0. Besides, in assay [9], the “KINOMEscan CSK” value is 6. Also, in [10], the “KINOMEscan ABL1(T315I)-nonphosphorylated” value was 0 and the “KINOMEscan ABL1(T315I)-phosphorylated” value is on record as 4. Further, in assay [11], the “KINOMEscan GRK4” value is listed as 0.

The values are drawn from article PMC9851200, “Multiparameter phenotypic screening for endogenous TFEB and TFE3 translocation identifies novel chemical series modulating lysosome function” (Autophagy, 2022).
